Assay results from US11166960B2, “Modified release preparations containing oxcarbazepine and derivatives thereof” (Supernus Pharmaceuticals, Inc., priority 2006, dated 2021).
Like-named read-outs stand apart in the source and are kept apart here.

Assays:
[1] = Solubility of oxcarbazepine in the presence of excipients; assay type: physicochemical; details: de-ionized water, thermodynamic from solid
[2] = as above; assay type: physicochemical
Procedure: The solubility of oxcarbazepine in the presence of excipients was evaluated as follows: Excipients were dissolved in phosphate buffer to make solutions with concentrations shown in Table 3. One gram of oxcarbazepine was then mixed with 19 gm of the excipient solution. The mixture was rocked overnight at room temperature and then filtered using 0.22 μm filter. The filtrates were analyzed by HPLC.

solubility [1]: 273 µg/mL
solubility ([2]; Kollidon 17 1% w/w in phosphate buffer): 171.7 µg/mL
solubility ([2]; aqueous with cosolvent or surfactant or cyclodextrin, thermodynamic from solid, Hydroxypropyl betacyclodextrin (HBCD) 5% w/w in phosphate buffer, read-out: Solubility): 1020 µg/mL
solubility ([2]; aqueous with cosolvent or surfactant or cyclodextrin, thermodynamic from solid, SLS/Stearic Acid/PEG400 5, 1, 1% w/w in phosphate buffer, read-out: Solubility): 3280 µg/mL
solubility ([2]; phosphate buffer (control, no excipient), aqueous buffer, thermodynamic from solid, Phosphate Buffer Control, room temperature overnight, read-out: Solubility): 401 µg/mL
solubility ([2]; phosphate buffer with 1% w/w Cremophor RH40, aqueous with cosolvent or surfactant or cyclodextrin, thermodynamic from solid, Cremophor RH40 1% w/w in phosphate buffer, read-out: Solubility): 314 µg/mL
solubility ([2]; phosphate buffer with 1% w/w SLS and 1% w/w HBCD, aqueous with cosolvent or surfactant or cyclodextrin, thermodynamic from solid, SLS/HBCD 1, 1% w/w in phosphate buffer, read-out: Solubility): 349 µg/mL
solubility ([2]; phosphate buffer with 5% w/w SLS and 1% w/w PEG400, aqueous with cosolvent or surfactant or cyclodextrin, thermodynamic from solid, SLS/Polyethylene Glycol 400 (PEG400) 5, 1% w/w in phosphate buffer, read-out: Solubility): 3050 µg/mL
solubility ([2]; phosphate buffer with 5% w/w docusate sodium, aqueous with cosolvent or surfactant or cyclodextrin, thermodynamic from solid, Docusate Sodium 5% w/w in phosphate buffer, read-out: Solubility): 6550 µg/mL
solubility ([2]; phosphate buffer with 5% w/w sodium lauryl sulfate (SLS), aqueous with cosolvent or surfactant or cyclodextrin, thermodynamic from solid, Sodium Lauryl Sulfate (SLS) 5% w/w in phosphate buffer, read-out: Solubility): 4110 µg/mL
Structure (SMILES): NC(=O)N1c2ccccc2CC(=O)c2ccccc21 [Oxcarbazepine]
